Among the data in article PMC9030138, “The Facile Preparation of PBA-GO-CuO-Modified Electrochemical Biosensor Used for the Measurement of α-Amylase Inhibitors’ Activity” (Molecules, 2022) are IC50 values, retold here.

The assay concerns the target T1, α-amylase (Sus scrofa, UniProt P00690).
T1 construct: gene AMY2; from porcine pancreas, type VI-B
T1 sequence (P00690 16-511): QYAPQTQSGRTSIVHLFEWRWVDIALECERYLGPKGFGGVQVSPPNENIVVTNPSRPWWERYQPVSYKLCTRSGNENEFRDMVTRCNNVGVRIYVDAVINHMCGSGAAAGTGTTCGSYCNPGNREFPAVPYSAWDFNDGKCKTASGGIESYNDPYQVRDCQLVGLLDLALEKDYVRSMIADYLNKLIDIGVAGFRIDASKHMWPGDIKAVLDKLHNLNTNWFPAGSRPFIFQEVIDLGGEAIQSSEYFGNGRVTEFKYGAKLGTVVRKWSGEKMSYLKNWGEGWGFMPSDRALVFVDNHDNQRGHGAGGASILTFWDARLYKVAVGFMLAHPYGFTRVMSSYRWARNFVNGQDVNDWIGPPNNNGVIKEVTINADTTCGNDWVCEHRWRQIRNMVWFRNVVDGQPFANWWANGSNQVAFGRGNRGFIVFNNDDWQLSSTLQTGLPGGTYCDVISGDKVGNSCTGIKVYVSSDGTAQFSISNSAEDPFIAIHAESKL
In words: electrochemical glucose sensor (PBA-GO-CuO electrode) assay of starch hydrolysis; checked by iodine colorimetric assay. The assay is classed as biochemical.

Take `O=C(O)c1cc(O)c2c(c1)C(=O)c1cccc(O[C@@H]3O[C@H](CO)[C@@H](O)[C@H](O)[C@H]3O)c1C2=O` [Rhein-8-b-D-glucopyranoside]: the IC50 is 39.1 µM. That is a double-digit micromolar value.
